In US20240376084A1, “INHIBITORS OF ALPHA-HEMOLYSIN OF STAPHYLOCOCCUS AUREUS” (Helmholtz-Zentrum Fur Infektionsforschung GmbH, priority 2021, published 2024) one finds IC50 and EC50 data, which are given here for 30 molecules.

Test [1] has as its target hemolysin alpha from Staphylococcus aureus (Staphylococcus aureus, UniProt P09616). The experiment in a line: cell-based.
Test [2] addresses S. aureus Alpha hemolysin (Staphylococcus aureus, UniProt P09616). The experiment in a line: cell-based. To be noted: A549-LDH Assay activity.

The term IC50 denotes the concentration at which inhibition is half-maximal. Low readings indicate greater potency in that assay, high ones weaker potency in that assay. As usually defined, the EC50 is the midpoint of the concentration-response curve.

SMILES strings stand for the structures. Bounds are passed on as bounds.

Sequence of S. aureus Alpha hemolysin (P09616 27-319 limits assumed): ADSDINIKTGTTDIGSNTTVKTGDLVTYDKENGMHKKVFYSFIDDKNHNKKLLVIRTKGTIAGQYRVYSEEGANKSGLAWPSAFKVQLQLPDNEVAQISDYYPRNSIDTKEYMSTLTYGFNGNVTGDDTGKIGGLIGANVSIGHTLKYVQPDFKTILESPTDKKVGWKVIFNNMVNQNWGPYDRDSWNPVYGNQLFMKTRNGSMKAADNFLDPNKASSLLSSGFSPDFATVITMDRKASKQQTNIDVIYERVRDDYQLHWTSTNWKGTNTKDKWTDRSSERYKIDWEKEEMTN
Sequence of hemolysin alpha from Staphylococcus aureus (P09616 27-319 limits assumed): as above

In test [1], `Cc1cc2[nH]c(=O)c(=O)[nH]c2cc1S(=O)(=O)Nc1ccc(C2CCCCC2)cc1` [Compound 86, N-(4-cyclohexylphenyl)-7-methyl-2,3-dioxo-1,2,3,4-tetrahydroquinoxaline-6-sulfonamide] came in with an IC50 of 0.1 to 1 µM. The molecule further registered an EC50 in test [2] of 0.1 to 1 µM.

`CCCc1ccc(NS(=O)(=O)c2cc3[nH]c(=O)c(=O)[nH]c3cc2F)cc1` [Compound 87, 7-fluoro-2,3-dioxo-N-(4-propylphenyl)-1,2,3,4-tetrahydroquinoxaline-6-sulfonamide] gave an IC50 in test [1] of 0.1 to 1 µM. In addition, the EC50 in test [2] fell in the range of 0.03 to 0.1 µM.

With `Cc1cc(NS(=O)(=O)c2cc3[nH]c(=O)c(=O)[nH]c3cc2Cl)ccc1-c1ccoc1` [Compound 88, 7-chloro-N-(4-(furan-3-yl)-3-methylphenyl)-2,3-dioxo-1,2,3,4-tetrahydroquinoxaline-6-sulfonamide], in test [1], the IC50 lay within 0.03 to 0.1 µM. The EC50 in test [2] was in the range of 0.1 to 1 µM.

Take `Cc1ccccc1-c1ccc(NS(=O)(=O)c2cc3[nH]c(=O)c(=O)[nH]c3cc2C)cc1` [Compound 89, 7-methyl-N-(2′-methyl-[1,1′-biphenyl]-4-yl)-2,3-dioxo-1,2,3,4-tetrahydroquinoxaline-6-sulfonamide]: the IC50 in test [1] is 0.1 to 1 µM. This molecule also yielded an EC50 in test [2] of 0.1 to 1 µM.

In test [1], `Cc1ccccc1-c1ccc(NS(=O)(=O)c2cc3[nH]c(=O)c(=O)[nH]c3cc2C)cc1Cl` [Compound 90, N-(2-chloro-2′-methyl-[1,1′-biphenyl]-4-yl)-7-methyl-2,3-dioxo-1,2,3,4-tetrahydroquinoxaline-6-sulfonamide] gave an IC50 of 0.1 to 1 µM. In test [2], the EC50 was 0.1 to 1 µM.

Molecule `Cc1cc(NS(=O)(=O)c2cc3[nH]c(=O)c(=O)[nH]c3cc2C)ccc1C(F)(F)F` [Compound 91, 7-methyl-N-(3-methyl-4-(trifluoromethyl)phenyl)-2,3-dioxo-1,2,3,4-tetrahydroquinoxaline-6-sulfonamide] came in with an IC50 in test [1] of 0.1 to 1 µM. Also, the EC50 in test [2] fell in the range of 0.1 to 1 µM.

`CCc1ccc(NS(=O)(=O)c2cc3[nH]c(=O)c(=O)[nH]c3cc2C)cc1` [Compound 92, N-(4-ethylphenyl)-7-methyl-2,3-dioxo-1,2,3,4-tetrahydroquinoxaline-6-sulfonamide]: the IC50 in test [1] is < 0.03 µM. The EC50 in test [2] is < 0.03 µM.

For the molecule `O=c1[nH]c2cc(Cl)c(S(=O)(=O)Nc3ccc(C(F)(F)F)cc3)cc2[nH]c1=O` [Compound 93, 7-chloro-2,3-dioxo-N-(4-(trifluoromethyl)phenyl)-1,2,3,4-tetrahydroquinoxaline-6-sulfonamide], the IC50 in test [1] lay in the range of 0.1 to 1 µM. Further, in test [2], the EC50 was 0.1 to 1 µM.

Turning to `O=c1[nH]c2cc(Cl)c(S(=O)(=O)Nc3ccc(-c4ccncc4)c(Cl)c3)cc2[nH]c1=O` [Compound 94, 7-chloro-N-(3-chloro-4-(pyridin-4-yl)phenyl)-2,3-dioxo-1,2,3,4-tetrahydroquinoxaline-6-sulfonamide], in test [1], the IC50 is 0.1 to 1 µM. The molecule further returned an EC50 in test [2] of 0.1 to 1 µM.

`Cc1cc2[nH]c(=O)c(=O)[nH]c2cc1S(=O)(=O)Nc1ccc(Br)cc1` [Compound 97, N-(4-bromophenyl)-7-methyl-2,3-dioxo-1,2,3,4-tetrahydroquinoxaline-6-sulfonamide] showed an IC50 in test [1] of 0.1 to 1 µM. The molecule also returned an EC50 in test [2] of 0.03 to 0.1 µM.

For the molecule `O=c1[nH]c2cc(Cl)c(S(=O)(=O)Nc3ccc(-c4ccccc4)cc3)cc2[nH]c1=O` [Compound 98, N-([1,1′-biphenyl]-4-yl)-7-chloro-2,3-dioxo-1,2,3,4-tetrahydroquinoxaline-6-sulfonamide], in test [1], the IC50 is 0.1 to 1 µM. This molecule also yielded an EC50 in test [2] of 0.1 to 1 µM.

For the molecule `O=c1[nH]c2cc(F)c(S(=O)(=O)Nc3ccc(-c4cccnc4)c(Cl)c3)cc2[nH]c1=O` [Compound 99, N-(3-chloro-4-(pyridin-3-yl)phenyl)-7-fluoro-2,3-dioxo-1,2,3,4-tetrahydroquinoxaline-6-sulfonamide], the IC50 in test [1] was 0.1 to 1 µM. Besides, the EC50 in test [2] lay within 1 to 6 µM.

`CC(C)c1cc2[nH]c(=O)c(=O)[nH]c2cc1S(=O)(=O)Nc1ccc(-c2ccsc2)c(Cl)c1` [Compound 100, N-(3-chloro-4-(thiophen-3-yl)phenyl)-7-isopropyl-2,3-dioxo-1,2,3,4-tetrahydroquinoxaline-6-sulfonamide]: in test [1], the IC50 is 0.1 to 1 µM. Further, the EC50 in test [2] lay within 1 to 6 µM.

`CC(C)c1ccc(NS(=O)(=O)c2cc3[nH]c(=O)c(=O)[nH]c3cc2F)cc1` [Compound 101, 7-fluoro-N-(4-isopropylphenyl)-2,3-dioxo-1,2,3,4-tetrahydroquinoxaline-6-sulfonamide] showed an IC50 in test [1] of 0.1 to 1 µM. In test [2], this molecule displayed an EC50 of 0.1 to 1 µM.

`COc1ccccc1-c1c(C)cc(NS(=O)(=O)c2cc3[nH]c(=O)c(=O)[nH]c3cc2C)cc1C` [Compound 102, N-(2′-methoxy-2,6-dimethyl-[1,1′-biphenyl]-4-yl)-7-methyl-2,3-dioxo-1,2,3,4-tetrahydroquinoxaline-6-sulfonamide] yielded an IC50 in test [1] of 0.1 to 1 µM. Besides, the EC50 in test [2] was in the range of 0.03 to 0.1 µM.

`Cc1ccccc1-c1ccc(NS(=O)(=O)c2cc3[nH]c(=O)c(=O)[nH]c3cc2C)cc1C` [Compound 103, N-(2,2′-dimethyl-[1,1′-biphenyl]-4-yl)-7-methyl-2,3-dioxo-1,2,3,4-tetrahydroquinoxaline-6-sulfonamide]: the IC50 in test [1] was 0.1 to 1 µM. Besides, the EC50 in test [2] was in the range of 0.1 to 1 µM.

As for `Cc1cc2[nH]c(=O)c(=O)[nH]c2cc1S(=O)(=O)Nc1cc(C)c(-c2ccccc2Cl)c(C)c1` [Compound 104, N-(2′-chloro-2,6-dimethyl-[1,1′-biphenyl]-4-yl)-7-methyl-2,3-dioxo-1,2,3,4-tetrahydroquinoxaline-6-sulfonamide], the IC50 in test [1] fell in the range of 0.1 to 1 µM. The EC50 in test [2] lay within 0.1 to 1 µM.

For the molecule `O=c1[nH]c2cc(Cl)c(S(=O)(=O)Nc3ccc(-c4ccc(F)c(Cl)c4F)c(Cl)c3)cc2[nH]c1=O` [Compound 105, 7-chloro-N-(2,3′-dichloro-2′,4′-difluoro-[1,1′-biphenyl]-4-yl)-2,3-dioxo-1,2,3,4-tetrahydroquinoxaline-6-sulfonamide], the IC50 in test [1] was 0.1 to 1 µM. The molecule also came in with an EC50 in test [2] of 0.1 to 1 µM.

For the molecule `Cc1cc(NS(=O)(=O)c2cc3[nH]c(=O)c(=O)[nH]c3cc2Cl)cc(C)c1-c1ccccc1` [Compound 106, 7-chloro-N-(2,6-dimethyl-[1,1′-biphenyl]-4-yl)-2,3-dioxo-1,2,3,4-tetrahydroquinoxaline-6-sulfonamide], the IC50 in test [1] lay in the range of 0.1 to 1 µM. The EC50 in test [2] lay within 0.03 to 0.1 µM.

As to `Cc1cc2[nH]c(=O)c(=O)[nH]c2cc1S(=O)(=O)Nc1cc(C)c(-c2ccoc2)c(C)c1` [Compound 107, N-(4-(furan-3-yl)-3,5-dimethylphenyl)-7-methyl-2,3-dioxo-1,2,3,4-tetrahydroquinoxaline-6-sulfonamide], in test [1], the IC50 lay within 0.1 to 1 µM. For the same molecule, in test [2], the EC50 lay within 0.03 to 0.1 µM.

Regarding `Cc1cc2[nH]c(=O)c(=O)[nH]c2cc1S(=O)(=O)Nc1ccc(-c2ccccc2Cl)cc1` [Compound 108, N-(2′-chloro-[1,1′-biphenyl]-4-yl)-7-methyl-2,3-dioxo-1,2,3,4-tetrahydroquinoxaline-6-sulfonamide], the IC50 in test [1] fell in the range of 0.1 to 1 µM. In addition, the EC50 in test [2] lay in the range of 0.1 to 1 µM.

In test [1], `CC(C)c1cc2[nH]c(=O)c(=O)[nH]c2cc1S(=O)(=O)Nc1ccc(-c2cccc(N(C)C)c2)c(Cl)c1` [Compound 109, N-(2-chloro-3′-(dimethylamino)-[1,1′-biphenyl]-4-yl)-7-isopropyl-2,3-dioxo-1,2,3,4-tetrahydroquinoxaline-6-sulfonamide] displayed an IC50 of 0.1 to 1 µM. For the same molecule, the EC50 in test [2] lay in the range of 0.1 to 1 µM.

In turn, `Cc1cc(C2CC2)ccc1NS(=O)(=O)c1cc2[nH]c(=O)c(=O)[nH]c2cc1C` [Compound 110, N-(4-cyclopropyl-2-methylphenyl)-7-methyl-2,3-dioxo-1,2,3,4-tetrahydroquinoxaline-6-sulfonamide] had an IC50 in test [1] of 0.1 to 1 µM. In test [2], the EC50 fell in the range of 0.03 to 0.1 µM.

In turn, `Cc1cccc(-c2ccc(NS(=O)(=O)c3cc4[nH]c(=O)c(=O)[nH]c4cc3C)cc2)c1` [Compound 112, 7-methyl-N-(3′-methyl-[1,1′-biphenyl]-4-yl)-2,3-dioxo-1,2,3,4-tetrahydroquinoxaline-6-sulfonamide] came in with an IC50 in test [1] of 0.1 to 1 µM. For the same molecule, in test [2], the EC50 lay in the range of 0.1 to 1 µM.

Take `CCc1ccccc1-c1ccc(NS(=O)(=O)c2cc3[nH]c(=O)c(=O)[nH]c3cc2C)cc1` [Compound 113, N-(2′-ethyl-[1,1′-biphenyl]-4-yl)-7-methyl-2,3-dioxo-1,2,3,4-tetrahydroquinoxaline-6-sulfonamide]: the IC50 in test [1] lay within 0.1 to 1 µM. Besides, the EC50 in test [2] is 0.1 to 1 µM.

`COc1ccccc1-c1ccc(NS(=O)(=O)c2cc3[nH]c(=O)c(=O)[nH]c3cc2C)cc1` [Compound 114, N-(2′-methoxy-[1,1′-biphenyl]-4-yl)-7-methyl-2,3-dioxo-1,2,3,4-tetrahydroquinoxaline-6-sulfonamide] yielded an IC50 in test [1] of 0.1 to 1 µM. This molecule gave an EC50 in test [2] of 0.1 to 1 µM.

In the case of `Cc1cc(NS(=O)(=O)c2cc3[nH]c(=O)c(=O)[nH]c3cc2C)ccc1C(C)C` [Compound 117, N-(4-isopropyl-3-methylphenyl)-7-methyl-2,3-dioxo-1,2,3,4-tetrahydroquinoxaline-6-sulfonamide], the IC50 in test [1] was in the range of 0.1 to 1 µM. Also, in test [2], the EC50 lay in the range of 0.1 to 1 µM.

Regarding `Cc1cc2[nH]c(=O)c(=O)[nH]c2cc1S(=O)(=O)Nc1ccc(-c2ccccc2N(C)C)cc1` [Compound 119, N-(2′-(dimethylamino)-[1,1′-biphenyl]-4-yl)-7-methyl-2,3-dioxo-1,2,3,4-tetrahydroquinoxaline-6-sulfonamide], the half-maximal inhibitory concentration (IC50) in test [1] lay within 0.1 to 1 µM. Moreover, in test [2], the EC50 is 0.1 to 1 µM.

In turn, `CCOC(=O)c1ccccc1-c1ccc(NS(=O)(=O)c2cc3[nH]c(=O)c(=O)[nH]c3cc2C)cc1` [Compound 120, ethyl 4′-((7-methyl-2,3-dioxo-1,2,3,4-tetrahydroquinoxaline)-6-sulfonamido)-[1,1′-biphenyl]-2-carboxylate] had an IC50 in test [1] of 0.1 to 1 µM. In test [2], the EC50 fell in the range of 1 to 6 µM.

Regarding `COc1cc(NS(=O)(=O)c2cc3[nH]c(=O)c(=O)[nH]c3cc2C)ccc1Br` [Compound 121, N-(4-bromo-3-methoxyphenyl)-7-methyl-2,3-dioxo-1,2,3,4-tetrahydroquinoxaline-6-sulfonamide], the IC50 in test [1] was in the range of 0.1 to 1 µM. Also, the EC50 in test [2] was 1 to 6 µM.
